Holding throughout (assay): Neuronal differentiation, inverted microscope morphology
Format in all cases: cell-based, Fischer rats

The test system of assay [1] is adipose-derived stem cells. The conditions noted are these: 10 μM small molecules; FIG. 3C, FIG. 4. On the procedure: (§1) Bone marrow-derived mesenchymal stem cells subcultured for 5 generations were distributed on a well plate. One day later, the cells were treated with DMEM containing 20% FBS and 10 ng/mL b-FGF for a day, so that the cells could proliferate sufficiently. In order to induce differentiation into nerve cells, the cells were treated with differentiation medium containing the small molecules listed in Table 1. The small molecules were used after being dissolved in DMSO (Sigma, USA). The concentration of DMSO was less than 2% of the entire culture medium, and was diluted so that the small molecules were included with a concentration in the range from 1 μM to 100 μM. As negative control, DMEM containing 10% FBS and 1% penicillin-streptomycin was used. And, retinoic acid as positive control, which is a well-known inducer of differentiation into nerve cells, was used after being diluted to 2 μM in DMEM. Differentiation of muscle-derived stem cells and adipose-derived stem cells into nerve cells was induced similarly as in the bone marrow-derived stem cells.

Assay [2] concerns bone marrow-derived mesenchymal stem cells. The following applies: 10 μM small molecules; FIG. 3A. On the procedure:
as §1

For assay [3], the system named is muscle-derived stem cells. The following applies: 10 μM small molecules; FIG. 3B. How it is done: as §1

For `CC(CCCCC(C)(C)C(=O)NO)C(=O)Nc1ccccc1` (centres unmarked) [AAHA-2], in assay [1], the “differentiation (microscopic images)” value was “differentiated”. Turning to `O=C(CCc1ccc(C(=O)NO)cc1)Nc1cccc(OCc2ccccc2)c1` [BHA-1], the “differentiation (microscopic images)” value in assay [1] is listed as “differentiated”. For the same compound, the “differentiation (inverted microscopic images)” value in assay [2] and in assay [3] was “differentiated” throughout. As to `COc1ccc(NC(=O)/C(=C/c2ccc(C(=O)NO)cc2)COc2cccc3ccccc23)cn1` [BHA-4], the “differentiation (microscopic images)” value in assay [1] is “differentiated”. Still for that read-out and setting: next, `C/C(=C/CCCCC(=O)NO)C(=O)NC1Cc2ccccc2C1` [AAHA-1]: “differentiated”. On to `O=C(NO)c1ccc2c(c1)NC(CCCc1ccccc1)C(=O)N2` (centres unmarked) [QHA-2], for which the “differentiation (microscopic images)” value in assay [1] is “differentiated”. In addition, the “differentiation (inverted microscopic images)” value in assay [2] and in assay [3] was “differentiated” in each case.

In the case of `O=C(NO)c1ccc(/C=C(/CNc2ccc(-c3ccccc3)cc2)COc2cccc3ccccc23)cc1` [BHA-3], in assay [1], the “differentiation (microscopic images)” value is “differentiated”. The same measure, in the same setting: next, `O=C(Nc1ccccc1)/C(=C/c1ccc(C(=O)NO)cc1)COc1ccc2oc3ccccc3c2c1` [BHA-2]: “differentiated”.

(Values after patent US20090136461A1, “Neuronal differentiation method of adult stem cells using small molecules” (priority 2007, published 2009).)
